In patent US11298363B2, “Triazolobenzazepines as vasopressin V1a receptor antagonists” (RICHTER GEDEON NYRT., priority 2017, dated 2022) one finds Ki and IC50 data, which are given here for 19 molecules.

For test [1], the target named is T1, human vasopressin V1a receptor (Homo sapiens, UniProt P37288). The test can be described thus: Human vasopressin V1a receptor binding assay. The settings on record: 1321N1 cell membranes, [3H]vasopressin; read-out: Ki (nM) on hV1a cell line. In short, it runs like this: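 Ki values come from IC50 via Cheng-Prusoff (KD from prior Scatchard), averaged over at least two independent runs. Human V1a membranes were incubated with radioligand 60 minutes at 27° C., bound ligand collected by filtration; (Arg^8)-vasopressin at 1.2×10^−6 M defined non-specific binding.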
T1 sequence (P37288 whole entry): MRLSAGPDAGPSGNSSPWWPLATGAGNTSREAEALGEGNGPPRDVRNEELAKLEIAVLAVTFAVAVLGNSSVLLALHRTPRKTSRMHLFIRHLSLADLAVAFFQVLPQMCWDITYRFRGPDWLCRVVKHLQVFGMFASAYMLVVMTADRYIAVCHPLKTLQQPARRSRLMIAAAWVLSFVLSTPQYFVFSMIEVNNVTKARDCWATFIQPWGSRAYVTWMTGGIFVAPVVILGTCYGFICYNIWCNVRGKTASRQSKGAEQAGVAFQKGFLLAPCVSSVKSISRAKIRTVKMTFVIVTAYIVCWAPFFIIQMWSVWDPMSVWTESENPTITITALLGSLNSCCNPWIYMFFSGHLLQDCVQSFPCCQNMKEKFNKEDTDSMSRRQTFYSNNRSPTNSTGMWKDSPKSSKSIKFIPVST

For test [2], the target named is T1, human vasopressin V1a receptor. The experiment in a line: Functional assay on human vasopressin V1a receptor expressing cell line (intracellular Ca2+ fluorescence). The format is cell-based. The note with it: 1321N1 cells, (Arg8)-vasopressin at EC80; read-out: IC50 (nM) on hV1a cell line.

With `Clc1ccc2c(c1)C[C@H](N1CCCC1)Cc1nnc([C@H]3CC[C@H](Oc4ccccn4)CC3)n1-2` [Example 117, (5S)-8-chloro-1-[trans-4-pyridin-2-loxcyclohexyl]-5-(pyrrolidin-1-yl)-5,6-dihydro-4H-[1,2,4]triazolo[4,3-a][1]benzazepine], the Ki in test [1] is 0.9 nM. For the same molecule, the IC50 in test [2] was 4.3 nM.
With `O=C([C@H]1CC[C@H](c2nnc3n2-c2ccc(Cl)cc2CC2(C3)OCCO2)CC1)N1CCCC1` [Example 70, [Trans-4-(8′-chloro-4′H,6′H-spiro[1,3-dioxolane-2,5′-[1,2,4]triazolo[4,3-a][1]benzazepine]-1′-yl)cyclohexyl](pyrrolidin-1-yl)methanone], in test [1], the Ki was 0.4 nM. For the same molecule, the IC50 in test [2] worked out at 1.2 nM.
With `O=C(N[C@H]1Cc2cc(Cl)ccc2-n2c(nnc2[C@H]2CC[C@H](Oc3ccccn3)CC2)C1)C1CCC(F)(F)CC1` [Example 214, N-{(5S)-8-chloro-1-[trans-4-(pyridin-2-yloxy)cyclohexyl]-5,6-dihydro-4H-[1,2,4]triazolo[4,3-a][1]benzazepin-5-yl}-4,4-difluorocyclohexanecarboxamide], the inhibition constant Ki in test [1] was 66 nM. Further, the IC50 in test [2] came to 672 nM.
Turning to `Clc1ccc2c(c1)C[C@H](N1CCOCC1)Cc1nnc([C@H]3CC[C@H](Oc4ccccn4)CC3)n1-2` [Example 122, (5S)-8-chloro-5-(morpholin-4-yl)-1-[trans-4-(pyridin-2-yloxy)cyclohexyl]-5,6-dihydro-4H-[1,2,4]triazolo[4,3-a][1]benzazepine], the Ki in test [1] was 3 nM. Also, the IC50 in test [2] was 14 nM.
As for `Clc1ccc2c(c1)CC1(Cc3nnc([C@H]4CC[C@H](Nc5ccccn5)CC4)n3-2)OCCO1` [Example 193, N-[trans-4-(8′-chloro-4′H,6′H-spiro[1,3-dioxolane-2,5′-[1,2,4]triazolo[4,3-a][1]benzazepin]-1′-yl)cyclohexyl]pyridin-2-amine], the Ki in test [1] was 0.1 nM. Besides, the IC50 in test [2] is 0.9 nM.
In the case of `Clc1ccc2c(c1)CC1(Cc3nnc(N4CCC5(CC4)OCc4ccccc45)n3-2)OCCO1` [Example 155, 8′-chloro-1′-(1′H,3H-spiro[2-benzofuran-1,4′-piperidin]-1′-yl)-4′H,6′H-spiro[1,3-dioxolane-2,5′-[1,2,4]triazolo[4,3-a][1]benzazepine]], the Ki in test [1] was 0.04 nM. In test [2], the IC50 was determined as 0.7 nM.
Turning to `COC1Cc2cc(Cl)ccc2-n2c(nnc2N2CCN(c3ncccc3Cl)CC2)C1` (centres unmarked) [Example 192, 8-chloro-1-[4-(3-chloropyridin-2-yl)piperazin-1-yl]-5-methoxy-5,6-dihydro-4H-[1,2,4]triazolo[4,3-a][1]benzazepine], in test [1], the Ki was found to be 0.8 nM. Moreover, the IC50 in test [2] stood at 6.3 nM.
For `OC1Cc2cc(Cl)ccc2-n2c(nnc2[C@H]2CC[C@H](C(F)(F)F)CC2)C1` (stereo partly drawn) [Example 72, 8-chloro-1-[trans-4-(trifluoromethyl)cyclohexyl]-5,6-dihydro-4H-[1,2,4]triazolo[4,3-a][1]benzazepine-5-ol], the Ki in test [1] is 7.5 nM. Moreover, in test [2], the IC50 was determined as 21 nM.
For the molecule `Fc1ccc2c(c1)CC1(Cc3nnc([C@H]4CC[C@H](C(F)(F)F)CC4)n3-2)OCCO1` [Example 149, 8′-fluoro-1′-[trans-4-(trifluoromethyl)cyclohexyl]-4′H,6′H-spiro[1,3-dioxolane-2,5′-[1,2,4]triazolo[4,3-a][1]benzazepine]], in test [1], the Ki turned out to be 0.8 nM. Further, the IC50 in test [2] is 15 nM.
The like results for `C=CC(=O)N[C@H]1Cc2cc(Cl)ccc2-n2c(nnc2[C@H]2CC[C@H](Oc3ccccn3)CC2)C1` [Example 98, N-{(5S)-8-chloro-1-[trans-4-(pyridin-2-yloxy)cyclohexyl]-5,6-dihydro-4H-[1,2,4]triazolo[4,3-a][1]benzazepin-5-yl}prop-2-enamide] were, in that order, 2.1 nM and 39 nM.
In the same order, the values of `OCCN[C@@H]1Cc2cc(Cl)ccc2-n2c(nnc2[C@H]2CC[C@H](Oc3ccccn3)CC2)C1` [Example 196, 2-({(5R)-8-chloro-1-[trans-4-(pyridin-2-yloxy)cyclohexyl]-5,6-dihydro-4H-[1,2,4]triazolo[4,3-a][1]benzazepin-5-yl}amino)ethanol] are 0.5 nM and 2.7 nM.
Turning to `N#CCC(=O)N[C@@H]1Cc2cc(Cl)ccc2-n2c(nnc2[C@H]2CC[C@H](Oc3ccccn3)CC2)C1` [Example 186, N-(5R)-8-chloro-1-[trans-4-(pyridin-2-yloxy)cyclohexyl]-5,6-dihydro-4H-[1,2,4]triazolo[4,3-a][1]benzazepin-5-yl-2-cyanoacetamide], the Ki in test [1] turned out to be 0.4 nM. The IC50 in test [2] was 1.2 nM.
Regarding `CC(C)(C)[Si](C)(C)OC1Cc2cc(Cl)ccc2-n2c(nnc2[C@H]2CC[C@H](Oc3ccccn3)CC2)C1` (stereo partly drawn) [Example 52, 5-{[tert-butyl(dimethyl)silyl]oxy}-8-chloro-1-[trans-4-(pyridin-2-yloxy)cyclohexyl]-5,6-dihydro-4H-[1,2,4]triazolo[4,3-a][1]benzazepine], the inhibition constant Ki in test [1] is 11 nM. In addition, the half-maximal inhibitory concentration (IC50) in test [2] was found to be 60 nM.
For `CC(C)NC1Cc2cc(Cl)ccc2-n2c(nnc2[C@H]2CC[C@H](C(F)(F)F)CC2)C1` (stereo partly drawn) [Example 44, 8-chloro-N-(propan-2-yl)-1-[trans-4-(trifluoromethyl)cyclohexyl]-5,6-dihydro-4H-[1,2,4]triazolo[4,3-a][1]benzazepine-5-amine], the Ki in test [1] came out at 26 nM. Moreover, the IC50 in test [2] was 480 nM.
`O=C([C@H]1CC[C@H](c2nnc3n2-c2ccc(Cl)cc2CC2(C3)OCCO2)CC1)N1CCOCC1` [Example 108, Trans-4-(8′-chloro-4′H,6′H-spiro[1,3-dioxolane-2,5′-[1,2,4]triazolo[4,3-a][1]benzazepin]-1′-yl)cyclohexyl(morpholin-4-yl)methanone]: the inhibition constant Ki in test [1] was 0.2 nM. Moreover, in test [2], the IC50 is 4.9 nM.
With `CN[C@H]1Cc2cc(Cl)ccc2-n2c(nnc2[C@H]2CC[C@H](Oc3ccccn3)CC2)C1` [Example 78, (5S)-8-chloro-N-methyl-1-[trans-4-(pyridin-2-yloxy)cyclohexyl]-5,6-dihydro-4H-[1,2,4]triazolo[4,3-a][1]benzazepine-5-amine], the Ki in test [1] was determined as 1.7 nM. In addition, the IC50 in test [2] amounted to 12 nM.
For `CN(C)[C@H]1CC[C@H](c2nnc3n2-c2ccc(Cl)cc2CC2(C3)OCCO2)CC1` [Example 190, Trans-4-(8′-chloro-4′H,6′H-spiro[1,3-dioxolane-2,5′-[1,2,4]triazolo[4,3-a][1]benzazepin]-1′-yl)-N,N-dimethylcyclohexanamine], in test [1], the inhibitory constant (Ki) was determined as 5.3 nM. In addition, the IC50 in test [2] came out at 105 nM.
The like results for `CC(=O)OC1Cc2cc(Cl)ccc2-n2c(nnc2[C@H]2CC[C@H](Oc3ccccn3)CC2)C1` (stereo partly drawn) [Example 195, 8-chloro-1-[trans-4-(pyridin-2-yloxy)cyclohexyl]-5,6-dihydro-4H-[1,2,4]triazolo[4,3-a][1]benzazepin-5-yl acetate] were, in that order, 0.3 nM and 1.6 nM.
Regarding `O=C(N[C@H]1Cc2cc(Cl)ccc2-n2c(nnc2[C@H]2CC[C@H](Oc3ccccn3)CC2)C1)C1CCC1` [Example 121, N-{(5S)-8-chloro-1-[trans-4-(pyridin-2-yloxy)cyclohexyl]-5,6-dihydro-4H-[1,2,4]triazolo[4,3-a][1]benzazepin-5-yl}cyclobutanecarboxamide], the Ki in test [1] came to 79 nM. In test [2], the IC50 turned out to be 442 nM.

The term Ki denotes the dissociation constant of the complex between target and ligand, obtained from inhibition or displacement. As a reminder, the IC50 is the midpoint of a concentration-inhibition curve.
